Experimental data taken from patent US20240352309A1, “FLUORESCENT DYE, AND PREPARATION METHOD THEREFOR AND USE THEREOF” (FLUORESCENCE DIAGNOSIS (SHANGHAI) BIOTECH COMPANY LTD., priority 2021, published 2024).

Key:
[1] = Fluorescence emission in glycerol and methanol (Test Example 1); type: physicochemical; conditions: for Fluorescence intensity ratio in glycerol and methanol: 1×10^−5 M in glycerol vs methanol, maximum excitation wavelength; for Emission wavelength: 1×10^−5 M, excited at maximum excitation wavelength of each dye
Description: The fluorescent dye (molecular rotors) prepared in Examples dye1-dye42 were dissolved in DMSO each to prepare a mother solution with a concentration of 1×10^−2 M, and each mother solution was added to glycerol and methanol respectively and was mixed well, and a solution with a final concentration of 1×10^−5 M was prepared.

[2] = Emission spectra in glycerol, wavelength adjustment (Test Example 3); type: physicochemical; conditions: 1×10^−5 M
Description: The dye5, dye6, dye11, dye12, dye13, dye14, dye39 and dye42 were added into glycerol to prepare a solution with a final concentration of 1×10^−5 M, fluorescent dyes were excited with corresponding maximum excitation wavelength so as to obtain the emission spectra, and some of the emission spectra were normalized.

[3] = tested on: RNA aptamer in stable cell line (293T/17); assay: Confocal imaging of cells expressing RNA aptamer (Test Example 5); type: cell-based; conditions: 2 uM dye, 10 min incubation, confocal microscopy; cells not expressing aptamers do not fluoresce
Description: Stable cell line (293T/17) continuously expressing RNA aptamer ([…]) and control cells (293T/17) were used, and cell culture media of dye1, dye12, dye25, and dye41 with a final concentration of 2 uM substituted original cell culture media after the cell line and control cells grew to a cell confluence of 90% under the conventional mammalian cell culture condition (37° C., 5% carbon dioxide, 100% relative humidity), and were incubated for 10 min (37° C., 5% carbon dioxide, 100% relative humidity).

[4] = Fluorescence emission in glycerol-diethanol mixed solutions of different viscosities (Test Example 2); type: physicochemical; conditions: glycerol-diethanol mixed solution, 16.4-946.0 cp, 1×10^−5 M
Description: The dye7, dye9, dye12, dye25, dye40 were respectively added into a glycerol-diethanol mixed solution with the following viscosities: 16.4 cp (the volume ratio of glycerol was 0%), 29.8 cp (the volume ratio of glycerol was 20%), 64.5 cp (the volume ratio of glycerol was 40%), 143.5 cp (the volume ratio of glycerol was 60%), 377.0 cp (the volume ratio of glycerol was 80%), 946.0 cp (the volume ratio of glycerol was 100%), so as to prepare solutions with a final concentration of 1×10^−5 M; the fluorescence emission spectra under different viscosity conditions were shown as FIGS. 1, 3, 5, 7 and 9, wherein the emission wavelengths of the above-mentioned molecular rotors were respectively 620 nm, 576 nm, 650 nm, 670 nm and 720 nm. According to the results, fluorescence intensities of fluorescent dyes of the same concentration increase with ambient viscosity.

[5] = Fluorescence in solvents with different polarities (Test Example 2); type: physicochemical; conditions: methylbenzene, ethyl acetate, methyl alcohol, acetonitrile, dimethyl sulfoxide
[6] = Background fluorescence in PBS (Test Example 4); type: physicochemical; conditions: 1×10^−5 M, relative to contrast dyes of the same group (dye48, dye49, dye50, dye47)
Description: The dye1 and dye48; dye22 and dye49; dye40 and dye50; dye9, dye10 and dye47 were added to PBS to prepare a solution with a final concentration of 1×10^−5 M, corresponding maximum excitation wavelengths were used for exciting the dyes so that their fluorescence intensities in PBS could be detected, and normalization was performed with the strongest fluorescence intensity in each group of samples as 100, as shown respectively in FIGS. 21, 22, 23 and 24.

[7] = tested on: RNA aptamer in stable cell line (293T/17); assay: Flow detection of cells expressing RNA aptamer (Test Example 6); type: cell-based; conditions: 1 μM dye in PBS, 5 minutes

| Compound | Fluorescence intensity ratio in glycerol and methanol [1] | Emission wavelength [1] | increase of emission wavelength ([2]; dye6 vs dye5, oxo-carbonyl turned into thiocarbonyl) | Emission wavelength [4] | viscosity response of fluorescence intensity [4] | fluorescence intensity in solvents with different polarities [5] | background fluorescence in PBS [6] | shortening of emission wavelength ([2]; dye13 vs dye12, ring sulfur turned into nitrogen) | fluorescence of cells expressing aptamers [3] | dye background fluorescence before binding [7] | fluorescence after binding to RNA aptamer in cells [7] |
| --- | --- | --- | --- | --- | --- | --- | --- | --- | --- | --- | --- |
| CN1CCSc2cc(/C=C3\SC(=S)NC3=O)ccc21 [dye6] | 658 | 608 nm | about 50 nm | – | – | – | – | – | – | – | – |
| CN(CCO)c1cc2sc(/C=C3\SC(=S)NC3=O)cc2s1 [dye12] | 654 | 650 nm | – | 650 nm | sensitive to viscosity | weak | – | – | bright fluorescence | – | – |
| CN1C(=O)S/C(=C\c2ccc(N(C)CCO)s2)C1=O [dye1] | 695 | 520 nm | – | – | – | – | lower background fluorescence | – | bright fluorescence | – | – |

Now from value to molecule, other results behind:

| Fluorescence intensity ratio in glycerol and methanol [1] | Emission wavelength [1] | increase of emission wavelength ([2]; dye6 vs dye5, oxo-carbonyl turned into thiocarbonyl) | Emission wavelength [4] | viscosity response of fluorescence intensity [4] | fluorescence intensity in solvents with different polarities [5] | background fluorescence in PBS [6] | shortening of emission wavelength ([2]; dye13 vs dye12, ring sulfur turned into nitrogen) | Compound | fluorescence of cells expressing aptamers [3] | dye background fluorescence before binding [7] | fluorescence after binding to RNA aptamer in cells [7] |
| --- | --- | --- | --- | --- | --- | --- | --- | --- | --- | --- | --- |
| 594 | 735 nm | – | – | – | – | – | – | CN(CCO)c1cc2c(s1)-c1sc(/C=C3\NC(=S)NC3=O)cc1C2(C)C [dye41] | bright fluorescence | – | – |
| 874 | 630 nm | – | – | – | – | – | 20 nm | CN(CCO)c1cc2sc(/C=C3\NC(=S)NC3=O)cc2s1 [dye13] | – | very low | notably activated |
